Reference: US4435574A, “2,6-Dimethyl-3,5-dicarbomethoxy-4-(ortho -di-fluoromethylthiophenyl)-1,4-dihydropyridine” (priority 1981, dated 1984)
Where “and” joins values, the source holds several entries; their conditions need not be identical. Equal values may be shown once. Entries after “also recorded” stand apart in the source; their conditions may differ. Read-outs that look alike come from different tables or passages of the source.

Legend:
coronary blood flow [1] = settings: prior-art compound, in words; cited from earlier work
coronary blood flow [2] = test: Volume rate of the coronary blood flow in anesthetized cats, intravenous; type: in vivo; settings: for Effective period / Increase in coronary blood flow: intravenous
[3] = prior-art compound, in words; cited from earlier work
Solubility = type: physicochemical
[4] = tested on: arterial blood pressure of anesthetized cats; test: Reduction of arterial blood pressure by 30 percent (ED30) in anesthetized cats; type: in vivo; settings: for ED30: Felis catus, read-out: ED30 (effective dose that reduces arterial blood pressure by 30 percent)
[5] = tested on: spontaneously hypertensive rats; test: Systolic arterial pressure in awake spontaneously hypertensive female rats of the Okamoto-Aoki line, intragastric; type: in vivo; settings: for Hypotensive effect, %, upon administration to spontaneously hypertensive rats: into the stomach
Method: Investigation of the pharmacological action of 2,6-dimethyl-3,5-dicarbomethoxy-4-(o-difluoromethylthiophenyl)-1,4-dihydropyridine upon parameters characterizing the performance of the cardiovascular system has been carried out in anesthetized cats, as well as in rats.
In the conditions as stated above, the proposed compound exceeded the SKF-24260 compound approximately 3 times with respect to both hypotensive activity and active period (see Table 1).
24 hours after administration of the proposed compound in a dose of 10 mg/kg, the systolic arterial pressure was down by a further 21.4±2.7%.

Light stability = type: physicochemical; settings: in words
[6] = Acute toxicity in breedless white mice, intraperitoneal; type: in vivo; settings: mouse, in vivo, ip; intraperitoneal administration to white mice
Source text: (§1) In experiments carried out in breedless white mice, the proposed compound, administered intraperitoneally, has been investigated for acute toxicity.

white mice [7] = test: as above; type: in vivo; settings: in words
Source text: as §1

white mice [8] = settings: prior-art compound, in words; cited from earlier work
[9] = tested on: arterial blood pressure of anesthetized cats; settings: prior-art compound, in words; cited from earlier work

COC(=O)C1=C(C)NC(C)=C(C(=O)OC)C1c1ccccc1[N+](=O)[O-] [Adalate, 2,6-dimethyl-3,5-dicarbomethoxy-4-(o-nitrophenyl)-1,4-dihydropyridine, reference compound]
Coronarodilating activity (coronary blood flow [1]): high coronarodilating activity
Effective period (coronary blood flow [2]; 0.05 mg/kg): 35 min
Increase in coronary blood flow (coronary blood flow [2]; 0.05 mg/kg): 90%
Sensitivity to light [3]: highly sensitive to light, decomposing rapidly in the presence of light

COC(=O)C1=C(C)NC(C)=C(C(=O)OC)C1c1ccccc1SC(F)F [Proposed compound, 2,6-dimethyl-3,5-dicarbomethoxy-4-(o-difluoromethylthiophenyl)-1,4-dihydropyridine]
Solubility in organic solvents (Solubility; organic solvents): soluble in organic solvents
Solubility in water (Solubility; water): insoluble in water
ED30 [4]: 0.019 mg/kg
Hypotensive effect compared with SKF-24260 ([4]; acute experiments, 50% aqueous dimethylacetamide, in words): same hypotensive effect
Systolic arterial pressure ([5]; 1 mg/kg and 10 mg/kg into the stomach, in words): dropped considerably
Hypotensive effect, %, upon administration to spontaneously hypertensive rats ([5]; after 6 hours, 1 mg/kg): 19.5%
Hypotensive effect, %, upon administration to spontaneously hypertensive rats ([5]; after 6 hours, 10 mg/kg): 54.8%
Hypotensive effect, %, upon administration to spontaneously hypertensive rats ([5]; after 24 hours, 10 mg/kg, 10 mg/kg): 21.4±2.7% and 21.4%
Duration of hypotensive activity ([5]; in words): prolonged duration; also recorded: highly prolonged hypotensive activity
Duration of hypotensive action (active period) relative to SKF-24260 ([5]; spontaneously hypertensive rats): approximately 3 times
Sensitivity to light (Light stability): light-resistant
Effective period (coronary blood flow [2]; 0.05 mg/kg): 30 min
Increase in coronary blood flow (coronary blood flow [2]; 0.05 mg/kg): 103%
Effective period (coronary blood flow [2]; 0.1 mg/kg): 65 min
Increase in coronary blood flow (coronary blood flow [2]; 0.1 mg/kg): 150%
Coronarodilating effect (coronary blood flow [2]; in words): pronounced coronarodilatory action; also recorded: capable of producing a coronarodilating effect
Coronarodilating effect compared with Adalate (coronary blood flow [2]; in words): comparable with that of Adalate; also recorded: comparable with the coronarodilatory action of Adalate
LD50 [6]: 93 mg/kg
Toxicity (white mice [7]): low toxicity
Toxicity compared with SKF-24260 (white mice [7]; intraperitoneal, mice): considerably lower; also recorded: considerably less toxic

CCOC(=O)C1=C(C)NC(C)=C(C(=O)OCC)C1c1ccccc1C(F)(F)F [SKF-24260, 2,6-dimethyl-3,5-dicarbothoxy-4-(o-trifluoromethylphenyl)-1,4-dihydropyridine, reference compound]
ED30 [4]: 0.022 mg/kg
Toxicity (white mice [8]): high toxicity
Systolic arterial pressure after 24 hours ([5]; 10 mg/kg, 24 hours, result in words): return to the initial value or increase above the initial level; also recorded: Initial
Hypotensive effect, %, upon administration to spontaneously hypertensive rats ([5]; after 6 hours, 1 mg/kg): 6.0%
Hypotensive effect, %, upon administration to spontaneously hypertensive rats ([5]; after 6 hours, 10 mg/kg): 15.8%
Duration of hypotensive effect [9]: short duration
Hypotensive activity [9]: appreciable hypotensive activity
LD50 [6]: 38.5 mg/kg
